Experimental data as given in the supplement of paper PMC4862054.

How the values were obtained:
Details in all cases: incubation time: 72 h
[1] = test system: MDA-MB-468; assay: normalised response (% of control), CellTiter-Glo; higher = more viable cells (100 = DMSO, 0 = benzethonium chloride kill control)
Protocol: (§1)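 DSRT, 72 h incubation, CellTox Green / CellTiter-Glo readout. Signal is normalised to DMSO and benzethonium chloride controls. Value is the normalised response at the highest dose.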

[2] = test system: Hs578T; assay: as above
Protocol: as §1

[3] = test system: HCC1599; assay: as above
Protocol: as §1

[4] = test system: CAL-85-1; assay: as above
Protocol: as §1

[5] = test system: HDQ-P1; assay: as above
Protocol: as §1

[6] = test system: CAL-51; assay: as above
Protocol: as §1

[7] = test system: SK-BR-3; assay: as above
Protocol: as §1

[8] = test system: CAL-120; assay: as above
Protocol: as §1

[9] = test system: HCC1143; assay: as above
Protocol: as §1

[10] = test system: DU-4475; assay: as above
Protocol: as §1

[11] = test system: HCC1937; assay: as above
Protocol: as §1

[12] = test system: MCF-10A; assay: as above
Protocol: as §1

[13] = test system: MFM-223; assay: as above
Protocol: as §1

[14] = test system: BT-549; assay: as above
Protocol: as §1

[15] = test system: CAL-148; assay: as above
Protocol: as §1

[16] = test system: MDA-MB-453; assay: as above
Protocol: as §1

[17] = test system: MDA-MB-231; assay: as above
Protocol: as §1

[18] = test system: BT-474; assay: as above
Protocol: as §1

[19] = test system: MDA-MB-436; assay: as above
Protocol: as §1

[20] = test system: MDA-MB-468; assay: normalised response (% of control), CellTox Green; higher = less cell death (100 = DMSO, 0 = benzethonium chloride kill control)
Procedure, shortened: (§2)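 For each plate, 0.1 % DMSO was set to 100 and a positive kill control to 0. Breast cancer cell lines (20 µl suspension) were seeded into 384-well plates already holding compound at 5 concentrations in 10-fold steps over a 10,000-fold range chosen per compound, and incubated for 72 h. CellTox Green fluorescence at 485/520 nm was read before CellTiter-Glo luminescence, which followed 10 min at room temperature. Each value is the normalised signal at one concentration.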

[21] = test system: Hs578T; assay: as above
Procedure, shortened: as §2

[22] = test system: HCC1599; assay: as above
Procedure, shortened: as §2

[23] = test system: CAL-85-1; assay: as above
Procedure, shortened: as §2

[24] = test system: HDQ-P1; assay: as above
Procedure, shortened: as §2

[25] = test system: CAL-51; assay: as above
Procedure, shortened: as §2

[26] = test system: CAL-120; assay: as above
Procedure, shortened: as §2

[27] = test system: HCC1143; assay: as above
Procedure, shortened: as §2

[28] = test system: DU-4475; assay: as above
Procedure, shortened: as §2

[29] = test system: HCC1937; assay: as above
Procedure, shortened: as §2

[30] = test system: MCF-10A; assay: as above
Procedure, shortened: as §2

[31] = test system: MFM-223; assay: as above
Procedure, shortened: as §2

[32] = test system: BT-549; assay: as above
Procedure, shortened: as §2

[33] = test system: CAL-148; assay: as above
Procedure, shortened: as §2

[34] = test system: MDA-MB-453; assay: as above
Procedure, shortened: as §2

[35] = test system: MDA-MB-231; assay: as above
Procedure, shortened: as §2

[36] = test system: BT-474; assay: as above
Procedure, shortened: as §2

[37] = test system: MDA-MB-436; assay: as above
Procedure, shortened: as §2

Row | SMILES | normalised response [1] [%] | normalised response [2] [%] | normalised response [3] [%] | normalised response [4] [%] | normalised response [5] [%] | normalised response [6] [%] | normalised response [7] [%] | normalised response [8] [%] | normalised response [9] [%] | normalised response [10] [%] | normalised response [11] [%] | normalised response [12] [%] | normalised response [13] [%] | normalised response [14] [%] | normalised response [15] [%] | normalised response [16] [%] | normalised response [17] [%] | normalised response [18] [%] | normalised response [19] [%] | normalised response [20] [%] | normalised response [21] [%] | normalised response [22] [%] | normalised response [23] [%] | normalised response [24] [%] | normalised response [25] [%] | normalised response [26] [%] | normalised response [27] [%] | normalised response [28] [%] | normalised response [29] [%] | normalised response [30] [%] | normalised response [31] [%] | normalised response [32] [%] | normalised response [33] [%] | normalised response [34] [%] | normalised response [35] [%] | normalised response [36] [%] | normalised response [37] [%]
1 | Cn1cncc1[C@@](N)(c1ccc(Cl)cc1)c1ccc2c(c1)c(-c1cccc(Cl)c1)cc(=O)n2C [Tipifarnib] (10000 nM) | 31.8 | 49.6 | 40.6 | 61.5 | 60.2 | 59.1 | 33.5 | 63.4 | 49.6 | 46.9 | 53.1 | 74.3 | 39.6 | 40.3 | 54.7 | 63.7 | 73.8 | 53.9 | 34.7 | 88.8 | 101 | 98 | 75.2 | 69.9 | 84 | 81 | 98.7 | 85.6 | 72.2 | 92.6 | 75.5 | 90.4 | 89.5 | 92.4 | 57.5 | 75.5 | 81.1
2 | O=C1NC(=O)[C@@H](c2cn3c4c(cccc24)CCC3)[C@@H]1c1c[nH]c2ccccc12 [Tivantinib] (1000 nM) | 29.7 | 24.6 | 47.9 | 30.6 | 69.9 | 38.7 | 16.4 | 49.4 | 53.5 | 71.6 | 69.4 | 58.1 | 60 | 35.4 | 41.5 | 54.3 | 56.2 | 60.2 | 43.6 | 60.4 | 52.5 | 77.5 | 20.5 | 80.2 | 26.8 | 74.4 | 104 | 93.6 | 84.5 | 57.7 | 76.4 | 85.3 | 71.5 | 96.2 | 11.1 | 76 | 68.1
